Data on 26 molecules can be found in ChEMBL document CHEMBL5532719, “Insight on Some Newly Synthesized Trisubstituted Imidazolinones as VEGFR-2 Inhibitors” (ACS Med Chem Lett, 2024).

≈ marks a conversion by molar mass, not a printed value.

In series [1] the target is T1, Vascular endothelial growth factor receptor 2 (Homo sapiens, UniProt P35968). The experiment in a line: Inhibition of recombinant human VEGFR-2 using poly (Glu,Tyr) 4:1 as substrate in presence of ATP.
Series [2] relates to MCF7. The experiment in a line: Cytotoxicity against human MCF7 cells incubated for 72 hrs by MTT assay. In kind it is functional, cell-based. The following applies: MCF7, 72 h.
The subject of the next series is A549. The series is described as follows: Cytotoxicity against human A549 cells incubated for 72 hrs by MTT assay. The following applies: A549, 72 h. The class given is functional, cell-based.
Series [3] concerns the target T1, Vascular endothelial growth factor receptor 2. The experiment in a line: Inhibition of recombinant VEGFR2 (unknown origin) using poly (Glu,Tyr) 4:1 as substrate measured after 45 mins in presence of ATP by microplate reader analysis.
The subject of series [4] is MCF7. The series is described as follows: Cytotoxicity against human MCF-7 cells. In kind it is functional, cell-based.
The test system of another series is HepG2. The experiment in a line: Cytotoxicity against human HepG2 cells. The class given is functional, cell-based.
Series [5] in a line: Cytotoxicity against HUVECs incubated for 72 hrs by MTT assay. In kind it is toxicity, cell-based. The following applies: human, HUVEC cells.
The test system of the next series is HUVEC. The series is described as follows: Inhibition of cell migration in human HUVECs assessed as reduction in wound closure percentage (reference value: 97.037%). The class given is functional. The arrangement: scale not given: the % may be the effect or the level left.
A short description of series [6]: Cytotoxicity against human WI-38 cells incubated for 72 hrs by MTT assay. The class given is toxicity, cell-based.
Series [7] is described as follows: Selectivity index, ratio of IC50 for human WI-38 cells to IC50 for human MCF7 cells. In kind it is toxicity. As to conditions: WI-38 cells versus MCF7 cells, read-out: Ratio IC50.
Series [8] is described as follows: Selectivity index, ratio of IC50 for human WI-38 cells to IC50 for human A549 cells. The class given is toxicity. The following applies: WI-38 cells versus A549 cells, read-out: Ratio IC50.
In series [9] the test system is MCF7. The experiment in a line: Induction of cell cycle arrest in human MCF7 cells assessed as G1 phase arrest at 5.86 uM incubated for 72 hrs by PI staining based flow cytometry analysis (reference value: 11.07%). In kind it is functional.
For series [10], the system named is MCF7. The experiment in a line: Induction of cell cycle arrest in human MCF7 cells assessed as G2/M phase arrest at 5.86 uM incubated for 72 hrs by PI staining based flow cytometry analysis (reference value: 13.52%). The class given is functional.
Series [11] deals with MCF7. The experiment in a line: Induction of apoptosis in human MCF7 cells assessed as early apoptotic cells at 5.86 uM incubated for 72 hrs by Annexin-V/PI staining based flow cytometry analysis (reference value: 0.06%). In kind it is functional.
Series [12] relates to MCF7. The series is described as follows: Induction of apoptosis in human MCF7 cells assessed as late apoptotic cells at 5.86 uM incubated for 72 hrs by Annexin-V/PI staining based flow cytometry analysis (reference value: 0.68%). The class given is functional.
Series [13] deals with MCF7. The experiment in a line: Induction of apoptosis in human MCF7 cells assessed as necrotic cells at 5.86 uM incubated for 72 hrs by Annexin-V/PI staining based flow cytometry analysis (reference value: 0.02%). In kind it is functional.

T1 sequence (P35968 whole entry): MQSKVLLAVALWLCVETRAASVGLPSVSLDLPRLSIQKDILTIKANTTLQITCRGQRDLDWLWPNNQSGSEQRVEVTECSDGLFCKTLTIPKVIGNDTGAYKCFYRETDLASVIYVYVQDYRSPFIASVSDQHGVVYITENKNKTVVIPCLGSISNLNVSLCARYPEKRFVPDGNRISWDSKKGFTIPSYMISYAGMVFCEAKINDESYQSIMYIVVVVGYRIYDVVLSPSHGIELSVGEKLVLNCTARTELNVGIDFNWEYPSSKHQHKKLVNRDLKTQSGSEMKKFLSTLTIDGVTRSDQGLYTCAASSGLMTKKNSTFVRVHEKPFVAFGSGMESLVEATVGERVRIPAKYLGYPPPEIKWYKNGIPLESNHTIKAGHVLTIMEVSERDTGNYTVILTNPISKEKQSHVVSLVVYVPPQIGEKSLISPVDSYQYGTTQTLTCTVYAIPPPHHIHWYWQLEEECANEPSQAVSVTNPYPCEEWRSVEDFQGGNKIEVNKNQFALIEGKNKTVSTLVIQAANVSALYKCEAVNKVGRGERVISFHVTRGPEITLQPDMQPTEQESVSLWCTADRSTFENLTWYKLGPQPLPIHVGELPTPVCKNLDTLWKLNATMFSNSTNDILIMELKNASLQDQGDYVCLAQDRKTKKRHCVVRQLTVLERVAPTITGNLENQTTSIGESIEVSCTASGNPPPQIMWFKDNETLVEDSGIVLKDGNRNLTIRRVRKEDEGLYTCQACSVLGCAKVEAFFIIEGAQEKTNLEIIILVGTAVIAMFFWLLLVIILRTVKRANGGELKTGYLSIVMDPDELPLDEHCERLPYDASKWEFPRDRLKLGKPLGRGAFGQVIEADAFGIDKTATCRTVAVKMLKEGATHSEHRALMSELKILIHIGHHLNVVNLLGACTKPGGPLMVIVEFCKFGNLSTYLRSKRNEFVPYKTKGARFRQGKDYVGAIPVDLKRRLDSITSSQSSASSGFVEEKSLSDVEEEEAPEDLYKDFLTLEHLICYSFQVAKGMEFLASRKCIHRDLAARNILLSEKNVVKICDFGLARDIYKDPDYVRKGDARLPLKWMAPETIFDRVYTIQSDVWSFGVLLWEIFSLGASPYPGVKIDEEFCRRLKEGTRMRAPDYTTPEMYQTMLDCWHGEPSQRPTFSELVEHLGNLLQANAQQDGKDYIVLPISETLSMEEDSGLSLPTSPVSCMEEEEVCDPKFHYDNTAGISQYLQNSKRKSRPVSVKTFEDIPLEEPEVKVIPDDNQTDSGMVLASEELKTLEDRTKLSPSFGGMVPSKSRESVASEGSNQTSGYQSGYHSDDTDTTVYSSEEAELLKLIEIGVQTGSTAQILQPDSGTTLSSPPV

As for `C/C(=N\N1C(=O)CNC1=S)c1ccc(O)cc1O`, in series [1], the IC50 was 0.0251 µM.
`CCOC(=O)/C(C#N)=C(\c1ccc(O)cc1)N1CC(=O)N(/N=C(\C)c2ccc(O)cc2O)C1=S`: the IC50 in series [1] amounted to 0.0198 µM.
Consider `CN(C)c1ccc(/C=C2\N=C(c3ccccc3)N(c3ccc(C(=O)OCC(=O)Nc4ccc(S(=O)(=O)Nc5nccs5)cc4)cc3)C2=O)cc1`, for which the IC50 was found to be 26.5 µM in the series on MCF7 [2] and 16.6 µM in the series on A549.
On the same counts, the results for `CN(C)c1ccc(/C=C2\N=C(c3ccccc3)N(c3ccc(S(=O)(=O)NC(=N)N)cc3)C2=O)cc1` are 37.4 µM and 61.2 µM.
With `CN(C)c1ccc(/C=C2\N=C(c3ccc(Cl)cc3)N(c3ccc(C(=O)OCC(=O)Nc4ccc(S(=O)(=O)Nc5nccs5)cc4)cc3)C2=O)cc1`, the IC50 worked out at 10 µM with MCF7 [2], 12.9 µM in the series with A549 and 0.11 µM in series [3].
On to `CN(C)c1ccc(/C=C2\N=C(c3ccccc3)N(c3ccc(C(=O)OCC(=O)Nc4ccc(S(N)(=O)=O)cc4)cc3)C2=O)cc1`, for which the IC50 in the series on MCF7 [2] amounted to 17.7 µM; in the series on A549 it was 14.1 µM; in series [3], 0.02 µM.
Consider `CN(C)c1ccc(/C=C2\N=C(c3ccc(Cl)cc3)N(c3ccc(C(=O)OCC(=O)Nc4ccc(S(=O)(=O)Nc5ncccn5)cc4)cc3)C2=O)cc1`, for which the results for the IC50 in the series on MCF7 [2] and with A549 were 28.4 µM and 58 µM, respectively.
With `Cc1cc(NS(=O)(=O)c2ccc(N3C(=O)/C(=C/c4ccc(N(C)C)cc4)N=C3c3ccc(Cl)cc3)cc2)no1`, the figures for the IC50 (in the series on MCF7 [2]; with A549; in [3]) were 11.5 µM, 42.4 µM and 0.11 µM, respectively.
Consider `O=C1/C(=C/c2ccc(O)c(Br)c2)N=C(c2ccc(Cl)cc2)N1c1ccccc1`, for which the IC50 was 18 µg/mL (≈ 39.7 µM) in the series on MCF7 [4] and 6.1 µg/mL (≈ 13.4 µM) in the series with HepG2.
On to `Cc1cc(NS(=O)(=O)c2ccc(NC(=O)COC(=O)c3ccc(N4C(=O)/C(=C/c5ccc(N(C)C)cc5)N=C4c4ccccc4)cc3)cc2)no1`, for which the IC50 in the series on MCF7 [2] is 26.8 µM; in the series with A549, 30.6 µM.
On the same counts, the results for `CN(C)c1ccc(/C=C2\N=C(c3ccccc3)N(c3ccc(C(=O)OCC(=O)Nc4ccc(S(=O)(=O)NC(=N)N)cc4)cc3)C2=O)cc1` are 27.7 µM and 38.7 µM.
Regarding `CN(C)c1ccc(/C=C2\N=C(c3ccc(Cl)cc3)N(c3ccc(C(=O)OCC(=O)Nc4ccc(S(N)(=O)=O)cc4)cc3)C2=O)cc1`, the figures for the IC50 (in the series with MCF7 [2]; in the series with A549; in series [3]) were 24.2 µM, 25 µM and 0.36 µM, respectively.
In the case of `CC(=O)Oc1ccc(/C=C2\N=C(c3ccc(Cl)cc3)N(c3ccccc3)C2=O)cc1Br`, the figures for the IC50 in the series on MCF7 [4] and with HepG2 were 17.8 µg/mL (≈ 35.9 µM) and 4.6 µg/mL (≈ 9.28 µM), respectively.
`CN(C)c1ccc(/C=C2\N=C(c3ccccc3)N(c3ccc(S(N)(=O)=O)cc3)C2=O)cc1`: the figures for the IC50 (in the series with MCF7 [2]; in the series with A549; in series [3]) were 19.5 µM, 29 µM and 0.2 µM, respectively.
In the case of `CN(C)c1ccc(/C=C2\N=C(c3ccccc3)N(c3ccc(S(=O)(=O)Nc4ncccn4)cc3)C2=O)cc1`, the IC50 with MCF7 [2] was 21.1 µM; with A549 it was 29.6 µM.
In the case of `CN(C)c1ccc(/C=C2\N=C(c3ccc(Cl)cc3)N(c3ccc(C(=O)OCC(=O)Nc4ccc(S(=O)(=O)NC(=N)N)cc4)cc3)C2=O)cc1`, the IC50 is 17.2 µM in the series with MCF7 [2] and 20.2 µM in the series on A549.
In the case of `CNC(=O)c1cc(Oc2ccc(NC(=O)Nc3ccc(Cl)c(C(F)(F)F)c3)cc2)ccn1` [SORAFENIB], the IC50 in the series on MCF7 [2] amounted to 4.88 µM; in the series with A549, 7.46 µM. In [5], this molecule returned an IC50 at 72 h of 89.8 µM. In addition, the Activity in the series on HUVEC worked out at 57.037%.
Regarding `COc1cccc2c1C(=O)c1c(O)c3c(c(O)c1C2=O)C[C@@](O)(C(=O)CO)C[C@@H]3O[C@H]1C[C@H](N)[C@H](O)[C@H](C)O1` [DOXORUBICIN], the IC50 with MCF7 [2] was 6.52 µM; in the series on A549, 4.99 µM.
Taken in the same sequence, the figures for `CN(C)c1ccc(/C=C2\N=C(c3ccccc3)N(c3ccc(C(=O)OCC(=O)Nc4ccc(S(=O)(=O)Nc5ncccn5)cc4)cc3)C2=O)cc1` were 28.8 µM and 27.3 µM.
Consider `CN(C)c1ccc(/C=C2\N=C(c3ccc(Cl)cc3)N(c3ccc(S(=O)(=O)NC(=N)N)cc3)C2=O)cc1`, for which the IC50 with MCF7 [2] was 13.6 µM; in the series on A549, 27.8 µM; in series [3] it was 0.16 µM.
In the case of `CN(C)c1ccc(/C=C2\N=C(c3ccc(Cl)cc3)N(c3ccc(S(=O)(=O)Nc4ncccn4)cc3)C2=O)cc1`, the figures for the IC50 (in the series with MCF7 [2]; with A549; in series [3]) were 5.86 µM, 7.66 µM and 0.07 µM, respectively. Also, the IC50 at 72 h in series [6] turned out to be 21.6 µM; in series [5], 179 µM. In addition, the values for the selectivity ratio in [7] and in series [8] were 3.69 and 2.88, respectively. The Activity is 22.68% in the series with MCF7 [9]; 35.17% with MCF7 [10]; 22.84% in the series on MCF7 [11]; 42.21% in the series on MCF7 [12]; 1.64% in the series with MCF7 [13]; 65.926% in the series on HUVEC.
`CN(C)c1ccc(/C=C2\N=C(c3ccc(Cl)cc3)N(c3ccc(S(=O)(=O)Nc4nccs4)cc3)C2=O)cc1`: the IC50 amounted to 8.65 µM in the series on MCF7 [2], 16.2 µM with A549 and 0.1 µM in [3].
On the same counts, the results for `Cc1cc(NS(=O)(=O)c2ccc(N3C(=O)/C(=C/c4ccc(N(C)C)cc4)N=C3c3ccccc3)cc2)no1` are 9.85 µM, 10.1 µM and 0.14 µM.
In the case of `CN(C)c1ccc(/C=C2\N=C(c3ccccc3)N(c3ccc(S(=O)(=O)Nc4nccs4)cc3)C2=O)cc1`, the IC50 in the series on MCF7 [2] is 39.9 µM; with A549, 31.6 µM.
Taken in the same sequence, the figures for `Cc1cc(NS(=O)(=O)c2ccc(NC(=O)COC(=O)c3ccc(N4C(=O)/C(=C/c5ccc(N(C)C)cc5)N=C4c4ccc(Cl)cc4)cc3)cc2)no1` were 42.1 µM and 45.5 µM.
In the case of `CN(C)c1ccc(/C=C2\N=C(c3ccc(Cl)cc3)N(c3ccc(S(N)(=O)=O)cc3)C2=O)cc1`, the IC50 with MCF7 [2] was 11.5 µM; with A549, 28.8 µM; in [3], 0.1 µM.
